# Reference: patent publication US20140315886A1, “QUINAZOLINES AS THERAPEUTIC COMPOUNDS AND RELATED METHODS OF USE” (OTSUKA PHARMACEUTICAL CO., LTD., priority 2011, published 2014)
# Biological target: T1, purified STEP46 enzyme (Homo sapiens, UniProt P54829)
# T1 sequence (P54829 197-565 limits assumed): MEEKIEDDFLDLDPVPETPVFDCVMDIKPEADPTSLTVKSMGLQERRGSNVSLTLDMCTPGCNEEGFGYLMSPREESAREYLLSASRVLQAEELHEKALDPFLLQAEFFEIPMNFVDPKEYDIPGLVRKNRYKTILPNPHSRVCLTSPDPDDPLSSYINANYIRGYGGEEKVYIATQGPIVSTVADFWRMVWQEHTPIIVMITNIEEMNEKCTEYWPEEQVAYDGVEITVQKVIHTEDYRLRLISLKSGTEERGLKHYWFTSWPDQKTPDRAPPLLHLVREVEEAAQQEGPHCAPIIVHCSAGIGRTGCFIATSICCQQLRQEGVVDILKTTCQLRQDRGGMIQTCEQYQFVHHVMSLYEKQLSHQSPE
# Test: STEP46 biochemical assay (DiFMUP fluorescence phosphatase assay)
# Conditions: DiFMUP 10 μM, read-out: STEP IC50
# Method: Serial dilutions of compounds were performed in 100% DMSO and 1 uL of compounds were dispensed into 384-well black polystyrene plates (Corning, N.Y.). Compounds were incubated with 24 uL of buffer containing 50 mM Hepes, 1 mM DTT, 0.02% Brij35, 1 ng/well purified STEP46 enzyme for […] at room temperature. The reaction was initiated by addition of 25 uL of DiFMUP (6,8-difluoro-4-methylumbelliferyl phosphate) (InVitrogen, CA) with a final concentration of 10 μM and incubated at 27° C. for 90 mM Final DMSO concentration is 2%. Plates were read with florescence intensity at excitation/emission of 360/460 nm using a PheraStar plate reader (BMG Labtech, NC).
# Data were expressed as percentage (%) inhibition of enzyme activity. 0% inhibition is defined as the RFUs (relative fluorescence units) in the absence of compounds and 100% inhibition is defined as RFUs in the absence of STEP46 enzyme. IC50 values of compounds with inhibitory activity against STEP46 were determined by GraphPad Prism (version 4.03) using four parameter logistic equation. Some compounds act as activators. For compounds showing STEP46 enzymatic activation, data are represented as percentage of inhibition but with negative values at three representative concentrations (25, 50 and 100 uM).
row,Structure (SMILES),IC50 [µM]
1,Cc1ccc2c(c1)N(c1nc(-c3cccnc3)nc3ccc(Br)cc13)CC2 [Compound 20],1 to 10
2,COc1ccc2nc(-c3cccnc3)nc(Nc3cccc(F)n3)c2c1 [Compound 32],> 10
3,Fc1ccc(-c2ccc3nc(-c4cccnc4)nc(N4CCc5cc(F)ccc54)c3c2)cc1 [Compound 91],1 to 10
4,CNc1nc(-c2cccnc2)nc2c(OC)cc(-c3ccc(F)cc3)cc12 [Compound 259],> 10
5,CNc1nc(-c2cccnc2)nc2c(OC)cc(-c3ccc(Cl)cc3)cc12 [Compound 307],1 to 10
6,Cc1cncc(Nc2nc(-c3cccnc3)nc3ccc(Cl)cc23)c1 [Compound 66],1 to 10
7,CNc1nc(-c2cccnc2)nc2ccc(-c3cc(OC(F)(F)F)ccc3F)cc12 [Compound 263],1 to 10
8,CNc1nc(-c2cccnc2)nc2ccc(-c3ccc(OC)cc3C(F)(F)F)cc12 [Compound 249],> 10
9,CNc1nc(-c2cccnc2)nc2cc(-c3ccsc3)ccc12 [Compound 320],1 to 10
10,CNc1nc(-c2cccnc2)nc2ccc(-c3cc(Cl)ccc3F)cc12 [Compound 240],1 to 10
11,CNc1nc(-c2cccnc2)nc2c(OC)cc(-c3cccc(F)c3)cc12 [Compound 253],1 to 10
12,Clc1ccc2c(c1)CCN2c1nc(-c2cccnc2)nc2cc(-c3ccccc3Cl)ccc12 [Compound 111],> 10
13,Cc1c(-c2cncnc2)ccc2c(N3CCc4cc(Cl)ccc43)nc(-c3cccnc3)nc12 [Compound 115],< 1
14,Fc1ccccc1-c1ccc2c(N3CCc4cc(Cl)ccc43)nc(-c3cccnc3)nc2c1 [Compound 95],1 to 10
15,CNc1nc(-c2cccnc2)nc2cc(-c3cc(F)nc(F)c3)ccc12 [Compound 284],< 1
16,CNc1nc(-c2cncnc2)nc2cc(-c3cc(F)ccc3F)ccc12 [Compound 155],1 to 10
17,CNc1nc(-c2cccnc2)nc2ccc(-c3ccc(C(F)(F)F)cc3C(F)(F)F)cc12 [Compound 202],> 10
18,COc1ccc2nc(-c3cccnc3)nc(Nc3ccc(F)nc3)c2c1 [Compound 35],1 to 10
19,Cc1ccc2c(c1)CCN2c1nc(-c2cccnc2)nc2ccc(-c3cccc(F)c3F)cc12 [Compound 74],1 to 10
20,CNc1nc(-c2ccc(C)nc2)nc2cc(-c3cc(F)ccc3F)ccc12 [Compound 161],1 to 10
21,CNc1nc(-c2cccnc2)nc2cc(C)c(-c3cccc(F)c3)cc12 [Compound 299],1 to 10

row,Structure (SMILES),IC50 [µM]
1,COc1ccc2nc(-c3cccnc3)nc(N3CCc4ccc(Cl)cc43)c2c1 [Compound 4],1 to 10
2,Cc1ccc2c(c1)CCN2c1nc(-c2cccnc2)nc2cc(-c3cc(F)ccc3F)ccc12 [Compound 98],1 to 10
3,CNc1nc(-c2cccnc2)nc2c(Cl)cc(-c3ccc(F)cc3F)cc12 [Compound 244],1 to 10
4,CNc1nc(-c2cccnc2)nc2cc(-c3ccco3)ccc12 [Compound 317],> 10
5,Fc1ccc(-c2ccc3c(N4CCc5cc(Cl)ccc54)nc(-c4cccnc4)nc3c2)c(F)c1 [Compound 94],1 to 10
6,CNc1nc(-c2cccnc2)nc2ccc(-c3ccc(S(=O)(=O)C(C)C)cc3)cc12 [Compound 256],> 10
7,Clc1ccc2c(c1)CCN2c1nc(-c2cccnc2)nc2cc(-c3cncnc3)ccc12 [Compound 101],< 1
8,CNc1nc(-c2cccnc2)nc2ccc(-c3ncco3)cc12 [Compound 178],> 10
9,CC(=O)Nc1cccc(-c2ccc3c(N4CCc5cc(Cl)ccc54)nc(-c4cccnc4)nc3c2)c1 [Compound 102],1 to 10
10,CNc1nc(-c2cccnc2F)nc2ccc(-c3cccc(F)c3)cc12 [Compound 214],1 to 10
11,Fc1cc(F)cc(-c2ccc3nc(-c4ccnnc4)nc(NCc4ccccn4)c3c2)c1 [Compound 328],1 to 10
12,CNc1nc(-c2cccnc2)nc2cc(-c3ccoc3C)ccc12 [Compound 275],> 10
13,COc1ccc2c(c1)CCN2c1nc(-c2cccnc2)nc2ccc(Br)cc12 [Compound 21],> 10
14,Fc1ccc(F)c(-c2ccc3c(N4CCc5cc(Cl)ccc54)nc(-c4cccnc4)nc3c2)c1 [Compound 109],1 to 10
15,Fc1cccc(-c2ccc3c(N4CCc5cc(Cl)ccc54)nc(-c4cccnc4)nc3c2)c1 [Compound 96],1 to 10
16,CNc1nc(-c2cccnc2)nc2c(C)c(-c3ccc(C)cc3)ccc12 [Compound 296],> 10
17,CNc1nc(-c2cccnc2)nc2cc(F)c(-c3ccc(F)cc3F)cc12 [Compound 196],< 1
18,COc1ccc2nc(-c3cccnc3)nc(Nc3ccnc(F)c3)c2c1 [Compound 43],< 1
19,Fc1cccc(-c2ccc3nc(-c4ccnnc4)nc(NCc4ccccn4)c3c2)c1F [Compound 333],> 10
20,CNc1nc(-c2cccnc2)nc2cc(-c3cc(F)cc(OCCOC)c3)ccc12 [Compound 144],1 to 10

# Continued, values first:
row,IC50 [µM],Structure (SMILES)
1,1 to 10,c1ccc(CCNc2nc(-c3cccnc3)nc3ccc(-c4cc5ccccc5o4)cc23)nc1 [Compound 345]
2,1 to 10,CNc1nc(-c2cccnc2)nc2cc(F)c(-c3cc(F)cc(F)c3)cc12 [Compound 588]
3,1 to 10,CNc1nc(-c2cccnc2)nc2cc(F)c(-c3cccc(F)c3F)cc12 [Compound 594]
4,1 to 10,CC(Nc1nc(-c2cccnc2)nc2ccc(-c3ccc(F)c(F)c3)cc12)c1ccccc1 (centres unmarked) [Compound 350]
5,1 to 10,CNc1nc(-c2cccnc2)nc2c(-c3ccc(F)cc3F)ccc(OC)c12 [Compound 490]
6,1 to 10,CNc1nc(-c2cnccn2)nc2ccc(-c3ccc(F)c(F)c3)c(F)c12 [Compound 977]
7,1 to 10,CNc1nc(-c2cccnc2)nc2ccc(-c3c(F)ccc(F)c3F)cc12 [Compound 456]
8,< 1,CNc1nc(-c2cccnc2)nc2c(F)cc(-c3ccccc3C#N)cc12 [Compound 567]
9,1 to 10,Cc1ccc(Nc2nc(-c3cccnc3)nc3ccc(-c4ccc(F)cc4)cc23)nc1 [Compound 441]
10,1 to 10,CNc1nc(-c2cccnc2)nc2ccc(-c3nnc(-c4ccccc4)s3)cc12 [Compound 466]
11,1 to 10,Fc1ccc(-c2ccc3nc(-c4cccnc4)nc(Nc4cncc(F)c4)c3c2)cc1 [Compound 440]
12,1 to 10,CNc1nc(-c2cccnc2)nc2cc(-c3cc(F)ccc3F)c(F)cc12 [Compound 554]
13,< 1,CNc1nc(-c2cccnc2)nc2cc(-c3cc(F)cc(F)c3)c(F)cc12 [Compound 555]
14,< 1,CNc1nc(-c2cccnc2)nc2ccc(-c3ccc4c(c3)NC(=O)CO4)cc12 [Compound 469]
15,1 to 10,CNc1nc(-c2cccnc2)nc2c(F)c(-c3ccc(C)cc3)ccc12 [Compound 526]
16,1 to 10,CNc1nc(-c2cccnc2)nc2ccc(-c3ccc4c(c3)C(=O)NCCO4)cc12 [Compound 479]
17,1 to 10,c1ccc(CNc2nc(-c3cccnc3)nc3ccc(-c4ccoc4)cc23)nc1 [Compound 602]

row,IC50 [µM],Structure (SMILES)
1,1 to 10,c1ccc(CNc2nc(-c3cccnc3)nc3ccc(-c4ccco4)cc23)nc1 [Compound 348]
2,1 to 10,CNc1nc(-c2cccnc2)nc2cc(-c3ccc(C#N)cc3)c(F)cc12 [Compound 559]
3,1 to 10,COc1cc(-c2ccc(F)cc2F)cc2c(N3CC(OC)C3)nc(-c3cccnc3)nc12 [Compound 741]
4,1 to 10,CNc1nc(-c2cccnc2)nc2c(F)c(-c3cc(F)c(F)cc3F)ccc12 [Compound 522]
5,1 to 10,CNc1nc(-c2cccnc2)nc2c(F)cc(-c3c(F)cccc3F)cc12 [Compound 575]
6,1 to 10,CNc1nc(-c2cccnc2)nc2c(F)c(-c3ccc(F)c(F)c3F)ccc12 [Compound 521]
7,< 1,CNc1nc(-c2cccnc2)nc2ccc(-c3cccc4oc(=O)[nH]c34)cc12 [Compound 476]
8,1 to 10,CNc1nc(-c2cccnc2)nc2c(F)c(-c3ccncc3)ccc12 [Compound 519]
9,< 1,CNc1nc(-c2cccnc2)nc2ccc(-c3cc4[nH]c(=O)oc4cc3F)cc12 [Compound 477]
10,1 to 10,CC(Nc1nc(-c2cccnc2)nc2ccc(-c3ccc(F)cc3F)cc12)c1ccccc1 (centres unmarked) [Compound 607]
11,> 10,CNc1nc(-c2cccnc2)nc2c(F)c(-c3cc4ccccc4s3)ccc12 [Compound 534]
12,1 to 10,CNc1nc(-c2cccnc2)nc2c(F)cc(-c3ccc(C#N)cc3)cc12 [Compound 571]
13,1 to 10,CNc1nc(-c2cnccn2)nc2cc(-c3ccc(F)cc3F)ccc12 [Compound 395]
14,1 to 10,CNc1nc(-c2cccnc2)nc2c(F)cc(-c3cccc(F)c3)cc12 [Compound 563]
15,1 to 10,CNc1nc(-c2cccnc2)nc2cc(-c3c(F)ccc(F)c3F)ccc12 [Compound 453]
16,1 to 10,CNc1nc(-c2cccnc2)nc2c(F)c(-c3ccc(F)cc3)ccc12 [Compound 505]
